The nature of series [1]: Free fatty acid (FFA) levels in ob/ob mice after 14 days of oral dose at 100 mpk b.i.d. It is filed as ADME. The note with it: mouse, in vivo, 100 mg/kg, 336 h.
A short description of series [2]: Glucose levels in ob/ob mice after 13 days of oral dose at 100 mpk b.i.d. It is filed as ADME. The conditions noted are these: mouse, in vivo, 100 mg/kg, 312 h.
The nature of series [3]: Liver levels in ob/ob mice after 14 days of oral dose at 100 mpk b.i.d. The conditions noted are these: mouse, in vivo, 100 mg/kg, 336 h. Type of series: ADME, tissue-based.
A short description of series [4]: Alanine aminotransferase (ALT) levels in ob/ob mice after 13 days of oral dose at 100 mpk b.i.d. Type of series: ADME. The note with it: mouse, in vivo, 100 mg/kg, 312 h.
A short description of series [5]: Cholesterol levels in ob/ob mice after 14 days of oral dose at 100 mpk b.i.d. It is filed as ADME. The note with it: mouse, in vivo, 100 mg/kg, 336 h.
The species named for series [6] is Mus musculus. As to the kind of experiment: Initial weight of the ob/ob mice before oral treatment at 100 mpk b.i.d. for 13 days. It is filed as functional.
A short description of series [7]: Half life period of the compound in rat hepatocytes was determined. Type of series: ADME, cell-based, Liver, Hepatocyte.
Series [8] is described as follows: Insulin levels in ob/ob mice after 14 days of oral dose at 100 mpk b.i.d. Type of series: ADME. The note with it: mouse, in vivo, 100 mg/kg, 336 h.
For series [9], the species on record is Mus musculus. Put plainly: Final weight of the ob/ob mice after 13 days of oral treatment at 100 mpk b.i.d. Type of series: functional.
Series [10] concerns Rattus norvegicus. Put plainly: Reduction of uterine weight in pregnant rats after q.d. oral dosing at 3 mpk. Type of series: functional.
Series [11] concerns Rattus norvegicus. As to the kind of experiment: Reduction of progesterone levels in pregnant rats after q.d. oral dosing at 3 mpk. It is filed as functional.
The nature of series [12]: Glycogen levels in ob/ob mice after 14 days of oral dose at 100 mpk b.i.d. It is filed as ADME. The conditions noted are these: mouse, in vivo, 100 mg/kg, 336 h.
Series [13] is described as follows: Insulin levels in ob/ob mice after 13 days of oral dose at 100 mpk b.i.d. It is filed as ADME. The note with it: mouse, in vivo, 100 mg/kg, 312 h.
Series [14] is described as follows: Aspartate aminotransferase (AST) levels in ob/ob mice after 13 days of oral dose at 100 mpk b.i.d. It is filed as ADME. The conditions noted are these: mouse, in vivo, 100 mg/kg, 312 h.
Series [15] can be described thus: Free fatty acid (FFA) levels in ob/ob mice after 13 days of oral dose at 100 mpk b.i.d. It is filed as ADME. The conditions noted are these: mouse, in vivo, 100 mg/kg, 312 h.
For series [16], the species on record is Mus musculus. As to the kind of experiment: Initial weight of the ob/ob mice before oral treatment at 100 mpk b.i.d. for 14 days. Type of series: functional.
Series [17] is described as follows: Glucose levels in ob/ob mice after 14 days of oral dose at 100 mpk b.i.d. The conditions noted are these: mouse, in vivo, 100 mg/kg, 336 h. It is filed as ADME.
Series [18] is described as follows: Half life period of the compound in rat liver microsomes was determined. It is filed as ADME, Microsome.
Series [19] has as its target T1, Progesterone receptor (Homo sapiens, UniProt P06401).
T1 sequence (P06401 whole entry): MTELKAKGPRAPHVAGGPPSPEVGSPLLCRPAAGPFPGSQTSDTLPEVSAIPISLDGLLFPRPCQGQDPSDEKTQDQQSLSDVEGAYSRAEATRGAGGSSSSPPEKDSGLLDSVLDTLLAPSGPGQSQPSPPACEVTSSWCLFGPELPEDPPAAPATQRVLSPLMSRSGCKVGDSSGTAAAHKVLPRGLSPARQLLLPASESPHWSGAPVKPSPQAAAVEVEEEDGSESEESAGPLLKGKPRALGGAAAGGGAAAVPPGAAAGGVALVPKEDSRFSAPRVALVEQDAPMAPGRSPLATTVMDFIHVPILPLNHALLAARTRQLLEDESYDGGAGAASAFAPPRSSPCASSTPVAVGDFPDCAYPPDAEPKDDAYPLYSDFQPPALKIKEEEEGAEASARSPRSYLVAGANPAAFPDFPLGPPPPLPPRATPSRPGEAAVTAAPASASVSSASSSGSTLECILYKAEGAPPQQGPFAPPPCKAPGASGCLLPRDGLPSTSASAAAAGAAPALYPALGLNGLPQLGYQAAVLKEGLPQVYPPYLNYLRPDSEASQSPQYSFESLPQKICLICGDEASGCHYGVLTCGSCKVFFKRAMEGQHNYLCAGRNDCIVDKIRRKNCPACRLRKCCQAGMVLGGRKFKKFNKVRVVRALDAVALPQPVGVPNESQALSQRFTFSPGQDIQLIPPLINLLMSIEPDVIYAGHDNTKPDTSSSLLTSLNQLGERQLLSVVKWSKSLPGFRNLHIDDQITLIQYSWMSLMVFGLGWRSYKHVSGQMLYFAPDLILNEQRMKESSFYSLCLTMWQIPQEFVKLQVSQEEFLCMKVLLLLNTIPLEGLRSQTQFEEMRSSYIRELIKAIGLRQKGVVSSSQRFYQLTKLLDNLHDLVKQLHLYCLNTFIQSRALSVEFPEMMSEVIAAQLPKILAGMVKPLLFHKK
Put plainly: Inhibition of human progesterone receptor.

For series [20], the target named is T2, Glucocorticoid receptor (Homo sapiens, UniProt P04150).
T2 sequence (P04150 whole entry): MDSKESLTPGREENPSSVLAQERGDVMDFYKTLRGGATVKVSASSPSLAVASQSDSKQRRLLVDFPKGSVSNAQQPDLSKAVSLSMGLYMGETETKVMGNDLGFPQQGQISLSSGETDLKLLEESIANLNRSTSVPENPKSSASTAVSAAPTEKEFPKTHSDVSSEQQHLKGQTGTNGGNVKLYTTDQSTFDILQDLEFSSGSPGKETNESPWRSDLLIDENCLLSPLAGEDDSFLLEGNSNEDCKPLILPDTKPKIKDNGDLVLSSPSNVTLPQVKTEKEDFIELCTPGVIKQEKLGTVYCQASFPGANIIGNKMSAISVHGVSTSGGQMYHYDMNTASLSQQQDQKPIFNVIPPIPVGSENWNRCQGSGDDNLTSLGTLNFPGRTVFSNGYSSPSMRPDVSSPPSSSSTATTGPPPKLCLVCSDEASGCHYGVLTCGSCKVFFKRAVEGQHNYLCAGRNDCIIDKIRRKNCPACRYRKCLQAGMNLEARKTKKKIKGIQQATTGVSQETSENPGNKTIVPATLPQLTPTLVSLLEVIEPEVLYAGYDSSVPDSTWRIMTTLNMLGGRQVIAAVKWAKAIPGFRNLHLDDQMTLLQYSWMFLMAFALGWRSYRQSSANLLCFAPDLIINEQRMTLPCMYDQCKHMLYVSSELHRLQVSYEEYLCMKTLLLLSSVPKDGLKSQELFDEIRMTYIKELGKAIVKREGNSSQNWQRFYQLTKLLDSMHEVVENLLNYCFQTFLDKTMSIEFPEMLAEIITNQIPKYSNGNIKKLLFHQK

Series [21] deals with T2, Glucocorticoid receptor. Put plainly: Antagonistic activity against 5 nM Dexamethasone induced glucocorticoid receptor mediated alkaline phosphatase activity. It is filed as functional.
In series [22] the target is T3, Glucocorticoid receptor (Homo sapiens) (UniProt P04150).
T3 sequence (whole entry): T2 sequence (P04150 whole entry)
The conditions noted are these: Huh-7.

The structures appear in SMILES notation. Where “and” joins values, the source holds several entries; their conditions need not be identical. Equal entries are not always repeated. Calls of active or inactive are those of the source. No cut-off for these calls is given here.

As a reminder, the half-life is the time in which the quantity being followed falls by half. Low values mean rapid decline, high ones slow decline. As for `CC#C[C@]1(O)CC[C@H]2[C@@H]3CCC4=CC(=O)CCC4=C3[C@@H](c3ccc(N(C)C)cc3)C[C@@]21C` [MIFEPRISTONE], the Level in series [1] is 0.84 mequiv/L; in series [2], 141 mg/dL; in [3], 1.8 nmol of pHB/min/mg of protein; in series [4], 1110 units/mL; in [5], 366 mg/dL; in series [8], 14 ng/mL. The Level is 30.5 mg/gof liver in series [12]; 7.5 ng/mL in series [13]; 310 units/mL in [14]; 1.5 mequiv/L in [15]; 170 mg/dL in [17]. The Weight in series [6] was 46.1 g; in series [9] it was 48.2 g and 51.2 g; in series [16], 41.7 g. The half-life is less than 6 min in series [7] and less than 19.8 min in series [18]. The Reduction in series [10] and in series [11] was 50% in each case.

What is called IC50 is the concentration that inhibits the measured activity by half. High values mean weaker potency, low ones greater potency. For `Cc1c(NS(C)(=O)=O)cccc1N(Cc1ccc(Oc2ccc(Br)c(OCC(=O)O)c2)cc1)Cc1ccc(F)cc1F`, the values for the IC50 in series [19], in series [20] and in series [21] were 140 nM, 1.8 nM and 330 nM, respectively. The Agonistic activity result in [22] was “inactive”.

The values are drawn from ChEMBL document CHEMBL1141148, “Antidiabetic activity of passive nonsteroidal glucocorticoid receptor modulators” (J Med Chem, 2005).
